Measured values from US11286278B2, “DPEP-1 binding agents and methods of use” (Arch Biopartners, Inc., priority 2018, dated 2022).

How the values were obtained:
[1] = test system: monocyte adhesion in kidney; experiment: Endotoxemia induced kidney inflammation, monocyte adhesion by multiphoton microscopy; type: in vivo, mouse; conditions: LysM gfp/gfp mice, LPS O111:B4 5 mg/kg i.v., 4 hours post LPS, peptide pretreatment
Description: HEK293T cells were transfected with pcDNA vector containing human DPEP1 via Lipofectamine 2000 as per manufacturer protocol. Transfected cells were positively selected for using geneticin resistance and subcloned to generate stably transfected DPEP1 clones. Human renal tubular epithelial cells (hTEC) were isolated and cultured from human kidney nephrectomies. For immunocytochemistry, cells were cultured on collagen coated glass coverslips and fixed by 4% paraformaldehyde. Fixed cells were incubated with biotinylated LSALT peptides (50 μM) with various modifications (glycine linkers and/or amidation) for 1 hour at 37° C. before PBS washes. Bound biotinylated peptide was detected via secondary streptavidin fluorescent conjugate (30 min. incubation at 37° C.) and washed with PBS. […] Bound biotinylated peptide was detected via secondary streptavidin fluorescent conjugate (30 min. incubation at 37° C.) and washed with PBS. Peptide binding was analyzed via flow cytometer. […] Inflammation was quantified by manual counting of monocyte adhesion in single microscopy fields (n=3-6 fields/group; *:p=0.02).
Plasma was separated for each sample and phosphoric acid added to stabilize peptide at each timepoint. Samples were assessed for LSALT and its' metabolites using LC/MS. […] Peptide binding was analyzed via flow cytometer. […]

[2] = test system: LPS activated endothelial cells (HLMVEC); experiment: Static neutrophil adhesion assay to LPS activated endothelial cells (HLMVEC); type: cell-based; conditions: human neutrophils, peptides at 100 uM or antibody at 13 ug/mL, LPS 1 ug/mL
Description: (§1) In the top panel, 96-well nickel-coated plates were coated with nothing or his-tagged recombinant human DPEP1 (9 pmol/well in PBS, incubated for 1 hr at room temp), washed out 3× with PBS +0.05% Tween 20, and blocked for 1 hr at room temp with cell culture media (Cell Applications Inc. Cat#111-500). Freshly isolated human neutrophils were added to the wells at 5×10^4/mL, 100 uL volume, with the indicated peptides at 0.45uM. After 30 minutes at 37° C., wells were washed out 3× with PBS, and fixed with 3.7% formaldehyde in PBS. Two fields-of-view were photographed at 4× magnification and all the cells counted were recorded for each well, done in triplicate. In the middle panel, Cos1 cells were transfected with an empty vector (Mock) or a vector encoding wild type human DPEP1, two days prior. One day prior, transfected cells were plated at near confluency in a 24-well plate. On the day of the experiment, freshly isolated human neutrophils were added to the wells at 1×10^5/mL, 0.5mL volume, with the indicated peptides at 100 uM. After 30 minutes at 37° C., wells were washed out 3× with culture media, then fixed in 3.7% formaldehyde in PBS. Five fields-of-view were photographed at 20× magnification and averaged for each well, done in triplicate. In the bottom panel, two days prior, 24-well plates were coated with Attachment Factor Solution (Cell Applications Inc. Cat#123-500). […]

[3] = molecular target: T1, DPEP1 (Homo sapiens, UniProt P16444); experiment: Phage hit binding to DPEP1 transfected Cos 1 cells; parameters: expressed in transfected cells; host or cells: Cos-1; conditions: 10^8 pfu test phage, backscreen DPEP1 vs DPEP2
T1 sequence (P16444 17-385): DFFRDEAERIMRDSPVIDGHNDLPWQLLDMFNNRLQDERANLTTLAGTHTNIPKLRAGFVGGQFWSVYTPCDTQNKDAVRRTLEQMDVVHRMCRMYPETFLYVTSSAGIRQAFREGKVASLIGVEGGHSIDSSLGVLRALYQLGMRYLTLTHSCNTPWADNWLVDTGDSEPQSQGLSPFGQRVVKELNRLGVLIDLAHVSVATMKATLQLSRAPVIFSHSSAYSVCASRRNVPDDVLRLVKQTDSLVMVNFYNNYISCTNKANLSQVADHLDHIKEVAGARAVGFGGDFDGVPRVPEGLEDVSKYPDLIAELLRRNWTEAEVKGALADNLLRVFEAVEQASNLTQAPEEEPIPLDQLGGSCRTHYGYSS
Description: The Ph.D.-12 library was first subtracted 3× against DPEP2 (Creative Biomart; DPEP2-8611H) linked to agarose beads (10 uL of DPEP-agarose in 100 uL Luria broth and 4.5×10^9 pfu of Ph.D.-12 library), wherein the phage remaining in the supernatant was retained, and those that stuck to the subtraction beads were discarded. Second, the library was selected against DPEP1-agarose beads, wherein the phage remaining in the supernatant were discarded and those binding to DPEP1-agarose pellet were retained. The pellet was washed 3× in PBS, then transferred to phage host bacterial culture (ER 2738) to amplify the bound phage, which were then precipitated as per manufacturer's protocol. The recovered phage were then used to repeat the subtraction and selection steps. […] Each plaque was amplified separately in liquid bacterial host culture. […] DNA inserts were translated to the expected protein and sorted to assess the number of repeating sequences. […]
In FIG. 19B, Cos1 cells were transiently transfected with plasmids corresponding to human DPEP1 or DPEP2 (Lipofectamine 2000) 24 hrs prior to plating on collagen-coated (PureCol; Type I collagen from bovine tendon) coverslips. One day later cells were incubated with 10^8 pfu test phage, which were then detected by anti-M13 rabbit serum (in house) with anti-rabbit Alexa 568 secondary. […]

[4] = molecular target: T1, DPEP1; experiment: Static neutrophil adhesion assay to recombinant hDPEP1; type: cell-based; parameters: purchased Creative Biomart DPEP1-77H; conditions: human neutrophils, peptides at 0.45uM, 30 minutes
Description: as §1

[5] = test system: Cos 1 transfected cells (human DPEP1); experiment: Static neutrophil adhesion assay to DPEP1 transfected Cos1 cells; type: cell-based; conditions: human neutrophils, peptides at 100 uM, 30 minutes
Description: as §1

## GGGLSALTPSPSWLKYKAL [Peptide G2, tri-glycine LSALT (G2)]
[1]
  endotoxemia induced kidney inflammation (monocyte adhesion): can inhibit endotoxemia induced kidney inflammation

## HIPKSPIQIPII
[2]
  neutrophil adhesion to LPS activated endothelial cells (HLMVEC): able to inhibit neutrophil adhesion

## KHMHWHPPALNT
[3]
  phage binding to DPEP1 transfected cells: brightest binding to DPEP1 transfected cells

## KHMHWHPPALNT [NeoH]
[4]
  neutrophil adhesion to recombinant hDPEP1: able to inhibit neutrophil adhesion
[2]
  neutrophil adhesion to LPS activated endothelial cells (HLMVEC): able to inhibit neutrophil adhesion
[5]
  neutrophil adhesion to DPEP1 transfected Cos 1 cells: able to inhibit neutrophil adhesion
